Source: patent US20060063754A1, “Methods of treating a sleep disorder” (priority 2004, published 2006)
pKi: −log10 of the molar value. Read-outs that look alike come from different tables or passages of the source.

Legend:
[1] = molecular target: Dopamine, D1 (human recombinant) (Homo sapiens, UniProt P21728); assay: Dopamine D1 binding assay
Procedure: Dopamine, D1 (human recombinant) binding assay was performed according to published procedures. See, e.g., Jarvie, et al. J. Recept Res., 13(1-4): 573-90 (1993); and Billard, et al. Life Sciences, 35(18): 1885-93 (1984), with modifications

[2] = molecular target: alpha 2 receptor; assay: alpha 2 receptor binding assay; settings: read-out: Ki Alpha2
Procedure: (§1) Binding assays were performed using Compound 1 and 2 in competitive binding assays with known standards for the H1 histamine receptor, and the M1, M2, and M3 muscarinic receptors, alpha 1 and alpha 2 receptors, and D1 and D2 receptors.

[3] = molecular target: T1, human recombinant M1 muscarinic receptor expressed in CHO cells (Homo sapiens, UniProt P11229); assay: M1 muscarinic receptor binding assay ([3H]-scopolamine, N-methyl chloride)
T1 construct: purchased PerkinElmer, Inc., Wellesley, Mass; host or cells: CHO cells
T1 sequence (P11229 1-460): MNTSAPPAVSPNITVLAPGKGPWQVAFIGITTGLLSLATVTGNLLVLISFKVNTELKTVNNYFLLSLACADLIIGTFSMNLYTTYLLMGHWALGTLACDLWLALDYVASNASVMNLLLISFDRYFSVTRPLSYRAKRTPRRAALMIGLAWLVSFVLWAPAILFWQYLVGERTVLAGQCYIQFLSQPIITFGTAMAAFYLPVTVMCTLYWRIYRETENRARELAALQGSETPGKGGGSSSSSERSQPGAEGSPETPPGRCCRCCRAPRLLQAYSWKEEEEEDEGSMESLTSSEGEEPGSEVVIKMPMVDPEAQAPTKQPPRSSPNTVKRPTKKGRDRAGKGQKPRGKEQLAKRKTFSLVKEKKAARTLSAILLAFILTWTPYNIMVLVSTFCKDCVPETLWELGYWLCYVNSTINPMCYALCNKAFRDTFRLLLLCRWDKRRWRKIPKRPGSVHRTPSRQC

[4] = molecular target: T2, human recombinant M2 muscarinic receptor expressed in CHO cells (Homo sapiens, UniProt P08172); assay: M2 muscarinic receptor binding assay
T2 construct: purchased PerkinElmer, Inc., Wellesley, Mass; host or cells: CHO cells
T2 sequence (P08172 1-466): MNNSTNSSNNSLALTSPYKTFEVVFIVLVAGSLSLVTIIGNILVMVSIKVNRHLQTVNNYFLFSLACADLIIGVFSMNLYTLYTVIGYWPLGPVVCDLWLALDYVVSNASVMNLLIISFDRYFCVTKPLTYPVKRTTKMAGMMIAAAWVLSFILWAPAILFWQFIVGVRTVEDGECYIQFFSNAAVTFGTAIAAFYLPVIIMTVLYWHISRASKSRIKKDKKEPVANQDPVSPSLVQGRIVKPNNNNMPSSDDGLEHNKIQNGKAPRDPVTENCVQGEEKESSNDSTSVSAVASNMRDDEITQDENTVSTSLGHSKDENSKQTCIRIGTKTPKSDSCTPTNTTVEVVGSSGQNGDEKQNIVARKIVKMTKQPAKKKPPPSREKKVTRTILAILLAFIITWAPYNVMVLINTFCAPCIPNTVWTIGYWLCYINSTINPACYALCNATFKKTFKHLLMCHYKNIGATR

[5] = molecular target: hERG channel (Homo sapiens, UniProt Q12809); assay: hERG channel current block, whole cell patch clamp in HEK293 cells; format: cell-based; settings: HEK293 cells expressing hERG, room temperature
Procedure: In the hERG assay, hERG channels are expressed in a human embryonic kidney cell line (HEK293) that lacks endogenous IKr. […] (See, Rampe 1997).
In one embodiment of the hERG assay, the positive control (i.e., reference compound) is terfenadine (Sigma, St. Louis Mo.), which has been shown, at a concentration of 60 nM, to block hERG current by approximately 75%. Test compounds are delivered in HEPES-buffered physiological saline (HB-PS)+0.1% dimethyl sulfoxide (DMSO). Each test compound is applied at a concentration of 10 μM to the HEK293 cells expressing hERG (n≧3, where n=the number of cells). Cells are exposed to the test compound for the time necessary to reach steady-state block, but not longer than 10 minutes. The positive control ([…] terfenadine) is applied to two cells (n≧2).
The hERG-exposed cells are then transferred to the recording chamber and superfused with HB-PS solution. The pipette solution for whole cell recordings includes potassium aspartate (130 mM), MgCl2 (5 mM), EGTA (5 mM), ATP (4 mM), and HEPES (10 mM) at a pH adjusted to 7.2 with KOH. Onset and steady state block of hERG current due to the test compound are measured using a pulse pattern with fixed amplitudes (depolarization: +20 mV for 2 seconds; repolarization: −50 mV for 2 seconds), repeated at 10 second intervals, from a holding potential of −80 mV. Peak tail current is measured during the 2 second step to −50 mV. A steady state is maintained for at least 30 seconds before applying the test compound or positive control compound. Peak tail currents are measured until a new steady state is achieved.
The in vitro effects of the disclosed sleep-inducing agents on the hERG (human ether-à-go-go-related gene) channel current (IKr, the rapidly activating, delayed rectifier cardiac potassium current) were determined by ChanTest (Cleveland, Ohio) according to Standard Operating Procedures of ChanTest.
All chemicals used were purchased from Sigma (St. Louis, Mo.) unless otherwise noted and were of ACS reagent grade purity or higher. […]

[6] = molecular target: alpha 1 receptor; assay: alpha 1 receptor binding assay; settings: read-out: Ki Alpha1
Procedure: as §1

[7] = molecular target: T3, human recombinant M3 muscarinic receptor expressed in CHO cells (Homo sapiens, UniProt P20309); assay: M3 muscarinic receptor binding assay
T3 construct: purchased PerkinElmer, Inc., Wellesley, Mass; host or cells: CHO cells

[8] = molecular target: D2 receptor (Homo sapiens, UniProt P14416); assay: Dopamine D2 binding assay
[9] = tested on: male Wistar rats; assay: Sleep-wakefulness monitoring (SCORE-2000, EEG/EMG) in rats; format: in vivo, rat; settings: oral bolus at CT-18, male Wistar rats
Procedure: Sleep-wakefulness, locomotor activity and body temperature are monitored in male Wistar rats treated with a test compound initially at a concentration of 10 mg/kg. Higher and lower doses are assayed for select compounds (e.g., as high as 45 mg/kg, and as low as necessary to establish a no-effect dose). Treatments are administered at CT-18, the peak of the activity dominated period (6 hours after lights-off), and produce soporific (sleep-inducing) effects characterized by increased non-REM sleep time, increased sleep continuity, but without evidence of REM sleep inhibition or rebound insomnia.
Sleep-wakefulness, locomotor activity and body temperature were monitored in vivo with certain of the disclosed sleep-inducing agents (e.g., Compounds 1 and 2) and other compounds described herein. Adult, male Wistar rats (250 g at time of surgery, Charles River Laboratories, Wilmington Mass.) were anesthetized (2% isoflourane in medical grade oxygen) and surgically prepared with a cranial implant to permit chronic electro-encephalogram (EEG) and electromyogram (EMG) recording. Body temperature and locomotor activity were monitored via a miniature transmitter (Mini-Mitter, Bend, Oreg.) surgically placed in the abdomen. The cranial implant consisted of stainless steel screws (two frontal (+3.2 AP from bregma, ±2.0 ML) and two occipital (−6.9 AP, ±5.5 ML)) for EEG recording. Two Teflon®-coated stainless steel wires were positioned under the nuchal trapezoid muscles for EMG recording. All leads were soldered to a miniature connector prior to surgery, and gas sterilized in ethylene oxide. The implant assembly was affixed to the skull with dental acrylic. A minimum of three weeks was allowed for surgical recovery.
Each rat was permanently housed in its own individual recording cage located within separate, ventilated compartments of custom-designed stainless steel cabinets. Each cage was enhanced with a filter-top riser and low-torque swivel-commutator. Food and water were available ad libitum. A 24-hr light-dark cycle (12 hours light, 12 hours dark) was maintained throughout the study. Animals were undisturbed for at least 48 hours before and after treatments.
Sleep and wakefulness were determined using “SCORE-2000™” (Hypnion, Worcester, Mass.)—an internet-based sleep-wake and physiological monitoring system. The system monitored amplified EEG (bandpass 1-30 Hz), integrated EMG (bandpass 10-100 Hz), body temperature and non-specific locomotor activity (LMA) via telemetry, and drinking activity, continuously and simultaneously. Arousal states were classified on-line as non-REM (NREM) sleep, REM sleep, wake, or theta-dominated wake every 10 seconds. Total drinking and locomotor activity counts, and body temperature were quantitated and recorded each minute, using EEG feature extraction and pattern-matching algorithms. […] The classification algorithm used individually-taught EEG-arousal-state templates, plus EMG criteria to differentiate REM sleep from theta-dominated wakefulness, plus behavior-dependent contextual rules (e.g., if the animal was drinking, it is awake). Drinking and locomotor activity intensity (LMA) were recorded every 10 seconds, while body temperature was recorded each minute. Locomotor activity was detected by a telemetry receiver (Mini-Mitter) beneath the cage. Telemetry measures (LMA and body temperature) were not part of the scoring algorithm; thus, sleep-scoring and telemetry data were independent measures.
Compounds were administered at CT-18, the peak of the activity-dominated period, sufficient time was allowed to view the time course of the treatment effect before lights-on (6 hours post-treatment). Compounds were suspended in sterile 0.25% or 0.5% methylcellulose (1-2 ml/kg). Treatments were administered orally as a bolus.
A parallel group study design was employed. […]

[10] = molecular target: T4, H1 histamine receptor (Bos taurus, UniProt P30546); assay: H1 histamine receptor competitive binding assay ([3H]pyrilamine); parameters: species or system bovine
T4 construct: the receptors were obtained from bovine cerebellar membrane tissue; from tissue; host or cells: bovine cerebellar membranes

[11] = molecular target: T1, human recombinant M1 muscarinic receptor expressed in CHO cells; settings: reference compounds; read-out: Ki of reference compounds in M1 binding assay; cited from earlier work

Chain of hERG channel (Q12809 whole entry): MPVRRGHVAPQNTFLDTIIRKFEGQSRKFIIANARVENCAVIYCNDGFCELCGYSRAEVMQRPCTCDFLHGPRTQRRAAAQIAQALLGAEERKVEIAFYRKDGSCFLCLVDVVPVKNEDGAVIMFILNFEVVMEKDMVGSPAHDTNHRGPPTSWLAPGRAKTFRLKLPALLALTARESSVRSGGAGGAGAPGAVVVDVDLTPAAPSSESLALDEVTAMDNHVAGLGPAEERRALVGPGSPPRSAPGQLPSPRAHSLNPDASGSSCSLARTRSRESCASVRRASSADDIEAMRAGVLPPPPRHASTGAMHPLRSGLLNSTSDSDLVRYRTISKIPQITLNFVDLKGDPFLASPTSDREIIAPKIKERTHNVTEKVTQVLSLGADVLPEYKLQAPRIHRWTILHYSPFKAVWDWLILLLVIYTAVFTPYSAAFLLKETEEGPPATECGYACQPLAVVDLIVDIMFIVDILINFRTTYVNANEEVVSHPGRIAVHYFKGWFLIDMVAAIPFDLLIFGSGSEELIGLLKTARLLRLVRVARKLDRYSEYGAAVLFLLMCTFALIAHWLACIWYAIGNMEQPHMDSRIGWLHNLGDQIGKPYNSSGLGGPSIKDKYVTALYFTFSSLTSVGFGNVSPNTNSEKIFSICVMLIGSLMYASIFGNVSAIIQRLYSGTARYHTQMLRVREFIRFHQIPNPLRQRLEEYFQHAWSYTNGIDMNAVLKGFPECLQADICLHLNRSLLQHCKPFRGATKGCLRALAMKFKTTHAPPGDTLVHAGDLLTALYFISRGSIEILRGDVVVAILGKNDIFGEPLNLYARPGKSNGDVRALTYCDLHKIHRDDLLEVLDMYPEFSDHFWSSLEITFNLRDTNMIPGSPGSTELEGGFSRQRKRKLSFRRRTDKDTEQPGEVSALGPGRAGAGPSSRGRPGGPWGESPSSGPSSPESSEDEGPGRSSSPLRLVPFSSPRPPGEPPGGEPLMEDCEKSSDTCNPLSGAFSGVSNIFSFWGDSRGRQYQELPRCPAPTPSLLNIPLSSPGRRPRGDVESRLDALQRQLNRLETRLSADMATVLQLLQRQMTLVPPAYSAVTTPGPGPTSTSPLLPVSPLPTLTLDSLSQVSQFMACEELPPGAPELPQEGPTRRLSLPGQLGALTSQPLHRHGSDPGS
T3 sequence (P20309 whole entry): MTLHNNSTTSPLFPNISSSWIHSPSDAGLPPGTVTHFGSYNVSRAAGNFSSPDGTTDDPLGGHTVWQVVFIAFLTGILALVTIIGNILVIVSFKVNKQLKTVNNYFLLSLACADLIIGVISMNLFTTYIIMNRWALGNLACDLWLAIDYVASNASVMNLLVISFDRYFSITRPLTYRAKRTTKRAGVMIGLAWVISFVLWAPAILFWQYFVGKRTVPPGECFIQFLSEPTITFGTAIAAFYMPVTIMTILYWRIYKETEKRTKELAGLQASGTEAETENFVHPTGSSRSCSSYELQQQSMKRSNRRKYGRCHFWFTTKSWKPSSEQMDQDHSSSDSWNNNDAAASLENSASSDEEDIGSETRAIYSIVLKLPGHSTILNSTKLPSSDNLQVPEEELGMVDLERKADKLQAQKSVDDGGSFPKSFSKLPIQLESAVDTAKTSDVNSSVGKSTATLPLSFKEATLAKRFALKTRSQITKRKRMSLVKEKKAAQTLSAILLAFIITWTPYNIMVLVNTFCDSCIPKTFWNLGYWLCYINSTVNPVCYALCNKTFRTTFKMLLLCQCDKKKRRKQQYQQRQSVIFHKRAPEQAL
T4 sequence (P30546 whole entry): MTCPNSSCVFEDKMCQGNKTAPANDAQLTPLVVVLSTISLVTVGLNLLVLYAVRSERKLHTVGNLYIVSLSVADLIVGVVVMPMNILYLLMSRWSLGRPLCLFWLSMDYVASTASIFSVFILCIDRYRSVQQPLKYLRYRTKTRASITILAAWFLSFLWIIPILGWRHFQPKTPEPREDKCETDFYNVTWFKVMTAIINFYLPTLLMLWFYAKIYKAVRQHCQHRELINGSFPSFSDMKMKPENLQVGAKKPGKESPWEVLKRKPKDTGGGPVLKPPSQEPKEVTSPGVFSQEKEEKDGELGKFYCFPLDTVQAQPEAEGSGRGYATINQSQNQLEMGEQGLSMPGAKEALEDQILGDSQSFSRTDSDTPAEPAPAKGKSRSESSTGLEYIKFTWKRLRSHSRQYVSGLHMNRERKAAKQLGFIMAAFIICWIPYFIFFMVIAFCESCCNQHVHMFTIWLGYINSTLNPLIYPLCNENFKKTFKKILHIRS
Chain of D2 receptor (P14416 whole entry): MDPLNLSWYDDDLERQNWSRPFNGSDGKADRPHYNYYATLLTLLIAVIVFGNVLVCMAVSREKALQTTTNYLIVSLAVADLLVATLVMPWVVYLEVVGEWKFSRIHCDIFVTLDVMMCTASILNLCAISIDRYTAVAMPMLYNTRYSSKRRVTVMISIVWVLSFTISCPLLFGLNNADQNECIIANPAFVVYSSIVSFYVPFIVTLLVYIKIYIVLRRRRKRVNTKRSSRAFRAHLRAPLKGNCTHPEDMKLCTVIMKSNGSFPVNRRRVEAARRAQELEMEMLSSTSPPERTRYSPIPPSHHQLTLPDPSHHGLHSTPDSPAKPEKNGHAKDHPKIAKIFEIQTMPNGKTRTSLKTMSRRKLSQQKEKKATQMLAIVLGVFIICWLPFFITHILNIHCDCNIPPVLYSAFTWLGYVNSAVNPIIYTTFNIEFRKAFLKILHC
Chain of Dopamine, D1 (human recombinant) (P21728 whole entry): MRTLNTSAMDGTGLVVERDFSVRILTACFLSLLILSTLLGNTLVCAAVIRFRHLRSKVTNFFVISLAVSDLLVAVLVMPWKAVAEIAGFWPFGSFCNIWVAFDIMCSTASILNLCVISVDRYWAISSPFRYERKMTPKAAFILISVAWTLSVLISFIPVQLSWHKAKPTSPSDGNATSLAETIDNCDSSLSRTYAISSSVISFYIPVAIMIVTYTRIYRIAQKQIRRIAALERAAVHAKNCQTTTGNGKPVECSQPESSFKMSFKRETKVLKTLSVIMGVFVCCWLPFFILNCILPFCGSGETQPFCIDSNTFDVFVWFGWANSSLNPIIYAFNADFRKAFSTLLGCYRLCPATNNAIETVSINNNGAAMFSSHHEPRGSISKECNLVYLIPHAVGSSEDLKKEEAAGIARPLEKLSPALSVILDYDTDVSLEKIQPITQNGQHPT

Compound	pKi [1]	pKi [2]	pKi [3]	pKi [4]	hERG at 10 micromolar (% blocking of the hERG channel) [5]	pKi [6]	pKi [7]	pKi [8]	LUSB (longest uninterrupted sleep bout) ([9]; dose 10 mg/kg)	NREM ([9]; dose 10 mg/kg)	pKi [10]	LUSB (longest uninterrupted sleep bout) ([9]; dose 3 mg/kg)	pKi [11]
O=C(O)CCN1CCN(C2=Nc3ccccc3Oc3ccccc32)CC1 [Compound 1]	5.95	< 5.00	< 5.00	< 5.00	0.70%	< 5.00	< 5.00	< 5.00	13.2 ± 3.3 min	22 ± 6 min	7.39		
O=C(O)CCCN1CCN(C2=Nc3ccccc3Oc3ccccc32)CC1 [Compound 2]	5.20	< 5.00	< 5.00	< 5.00	2.60%	5.49	< 5.00	< 5.00	7.2 ± 2.0 min	38 ± 6 min	7.27	3.8 ± 2.2 min	
O=C(O)CCN1CCN(C2=Nc3ccccc3Sc3ccccc32)CC1 [Compound 3]					0.80%				5 ± 2.0 min	43 ± 6 min		6 ± 1.9 min	
C[N+]1(C)CCC(OC(=O)C(c2ccccc2)c2ccccc2)CC1 [4-DAMP methiodide]													9.57
